Each molecule was assayed on HeLa cells (assay: HeLa cell 24 hr ploidy assay (DNA content)). Conditions: HeLa cells, 4N ploidy, average, read-out: 24h_4NPloidy EC50_IP (uM Avg).
Format: cell-based
Method: HeLa cell 24 hr ploidy assay protocol
The purpose of this assay is to evaluate the ability of selected individual compounds to induce Deoxyribonucleic acid (DNA) content (ploidy) in cells through failed cell division. Cell cycle analysis is a rapid and efficient way to evaluate the status of DNA content (ploidy) of a given cell. HeLa cells (1×10^4 HeLa cells/well) in 100 ul of media (MEM+10% FBS) were plated in 96-well plates (Packard View) and cultured for 24 hrs at 37° C. maintained in a 5% CO2 atmosphere. […] The compounds were serially diluted in DMSO (0.25% final concentration). The cells were fixed (3.7% Formaldehyde and 1% glutaraldehyde) and permeabilized (1×PBS with 1% BSA and 0.2% Triton X-100) in preparation for nuclear staining. The well plates were stained for 45 minutes at RT in the dark using Hoechest 33342 nuclear stain at 0.5 ug.ml (Stock of 10 mg/ml, Invitrogen, CA, Cat #H3570). The nuclear stain was removed by aspiration and the cells were washed with wash buffer. A Cellomics Array Scan Vti plate reader was used to acquire the DNA ploidy data of the cells using Cell Cycle bioapplication. Numbers for each of “valid cell count/well”, “% of 4N cells” and “% of >4Ncells” were calculated with the assistance of an Activity Base 5.1ca software and dose curves were generated using an XLFit software. With XLFit, final EC50 IP and EC50 transit values, as well as the Max and Min, were calculated for each curve.

EC50 [µM] | SMILES
0.006 | Clc1ccc(-c2nnc(Nc3ccc(Sc4ccnc5cccnc45)cc3)c3ccccc23)cc1 [compound 308]

Same assay, conditions: Homo sapiens, HeLa, 4N ploidy, average, read-out: 24h_4NPloidy EC50_IP (uM Avg)

EC50 [µM] | SMILES
0.018 | COc1cc2nccc(Oc3ccc(Nc4nnc(-c5ccc(C)c(C)c5)c5ccccc45)cc3)c2cc1OC [compound 74]
0.128 | COc1cnc2c(Oc3ccc(Nc4nnc(N5CCCCC5)c5ccccc45)cc3)ccnc2c1 [compound 151]

Second part, the molecule before the results:

SMILES | EC50 [µM]
COc1cnc2c(Oc3ccc(Nc4nnc(-c5ccc(C)cn5)c5ccccc45)cc3)ccnc2c1 [compound 125] | 0.059
COc1cnc2c(Oc3ccc(Cc4nnc(-c5ccc(C)cc5)c5ccccc45)cc3)ccnc2c1 [compound 126, 3-(methyloxy)-8-((4-((4-(4-methylphenyl)-1-phthalazinyl)methyl)phenyl)oxy)-1,5-naphthyridine] | > 1.2
CN1CCN(c2nnc(Nc3ccc(Oc4ccnc5cc(C#N)ccc45)cc3)c3ccccc23)CC1 [compound 94] | 0.09
COc1cnc2c(Oc3ccc(Nc4nnc(N5CCN(C)CC5)c5ccccc45)cc3)ccnc2c1 [compound 85] | 0.085
Brc1ccc2nccc(Oc3ccc(Nc4nnc(-c5ccccc5)c5ccccc45)cc3)c2c1 [compound 134] | 0.091

Same assay, conditions: Homo sapiens, HeLa, HeLa cells, 4N ploidy, average, read-out: 24h_4NPloidy EC50_IP (uM Avg)

EC50 [µM] | SMILES
0.044 | Cc1ccc(-c2ccc3c(Oc4ccc(Nc5nnc(-c6ccccc6)c6ccccc56)cc4)ccnc3c2)o1 [compound 344]
0.055 | COCCOCCOc1ccc2nccc(Sc3ccc(Nc4nnc(-c5ccc(Cl)cc5)c5ccccc45)cc3)c2c1 [Example 389, 4-(4-Chlorophenyl)-N-(4-(6-(2-(2-methoxyethoxy)ethoxy)quinolin-4-ylthio)phenyl) phthalazin-1-amine]
0.018 | CCc1cc(-c2ccc(C)cc2)nnc1Nc1ccc(Oc2ccnc3cc(OC)cnc23)cc1 [compound 199]
> 1.2 | COc1cnc2c(Oc3ccc(Nc4nnc(-c5nccn5C)c5ccccc45)cc3)ccnc2c1 [Example 30, N-(4-(7-methoxy-1,5-naphthyridin-4-yloxy)phenyl)-4-(1-methyl-1H-imidazol-2-yl)phthalazin-1-amine]
0.13 | Cc1ccsc1-c1nnc(Nc2ccc(Oc3ccnc4cc(C#N)ccc34)cc2)c2ccccc12 [compound 184]
0.03 | COc1ccc2ncnc(Oc3ccc(Nc4nnc(-c5cc(C)cs5)c5ccccc45)cc3)c2c1 [compound 565]
0.019 | Cc1ccc(-c2nnc(Nc3ccc(Sc4ccnc5cc(C#N)sc45)cc3)c3ccccc23)cn1 [compound 461]
0.112 | Cc1ccc(-c2nnc(Nc3ccc(Oc4ccnc5ccoc45)cc3)c3ccccc23)cc1N [compound 480]
0.007 | Cc1csc(-c2nnc(Nc3ccc(Oc4ccnc5cc(C#N)ccc45)cc3)c3ccccc23)c1 [compound 170]
0.6 | COc1cnc2c(Oc3ccc(Nc4nnc(-c5ccc(Cl)cc5C)c5ccccc45)cc3)ccnc2c1 [compound 233]
0.061 | COc1cc2nccc(Sc3ccc(Nc4nnc(-c5ccccc5)c5ccccc45)cc3)c2nc1OC [compound 597]
0.008 | Clc1ccc(-c2nnc(Nc3ccc(Sc4ccnc5c4CCCN5)cc3)c3ccccc23)cc1 [compound 570]
0.007 | Clc1ccc(-c2nnc(Nc3ccc(Sc4ccnc5ccncc45)cc3)c3ccccc23)nc1 [compound 430]
0.067 | COc1cnc2c(Sc3ccc(Nc4nnc(-c5cscn5)c5ccccc45)cc3)ccnc2c1 [compound 506]
0.013 | Cn1cncc1-c1cc2nccc(Oc3ccc(Nc4nnc(-c5ccc(Cl)cc5)c5ccccc45)cn3)c2s1 [compound 267]
0.006 | COc1cnc2c(Oc3ccc(Nc4nnc(-c5ccc(C)c(F)c5)c5ccccc45)cc3)ccnc2c1 [compound 243]
0.006 | COc1ccc2c(Cc3ccc(Nc4nnc(-c5ccc(Cl)cc5)c5ccccc45)cc3)ccnc2c1 [compound 328]
0.049 | CCc1cc(-c2ccc(Cl)cc2)nnc1Nc1ccc(Oc2ccnc3cc(OC)cnc23)cc1 [compound 256]
0.119 | FC(F)(F)Oc1ccc2nccc(Oc3ccc(Nc4nnc(-c5ccc(Cl)cc5)c5ccccc45)cc3)c2c1 [compound 574]
0.014 | COc1cnc2c(Sc3ccc(Nc4nnc(-c5ccc6occc6c5)c5ccccc45)cc3)ccnc2c1 [compound 501]

More lines, now with the values behind:

SMILES | EC50 [µM]
CCc1cc(-c2cc(C)cs2)nnc1Nc1ccc(Oc2ccnc3cc(OC)cnc23)cc1 [compound 210] | 0.056
COc1cnc2c(Oc3ccc(Nc4nnc(-c5ccc(Cl)cc5)c5ccccc45)cc3OC)ccnc2c1 [compound 566] | 0.191
COc1cnc2c(Oc3ccc(Nc4nnc(-c5cn[nH]c5)c5ccccc45)cc3)ccnc2c1 [compound 212] | 0.501
COc1cnc2c(Sc3ccc(Nc4nnc(-c5ccc(C)c(O)c5)c5ccccc45)cc3)ccnc2c1 [compound 451] | < 0.0023
COc1cnc2c(Oc3ccc(Nc4nnc(-c5ccc(F)nc5)c5ccccc45)cc3)ccnc2c1 [compound 190, 4-(6-fluoro-3-pyridinyl)-N-(4-((7-(methyloxy)-1,5-naphthyridin-4-yl)oxy)phenyl)-1-phthalazinamine] | 0.129
COc1cnc2c(Oc3ccc(Nc4nnc(-c5ncco5)c5ccccc45)cc3)ccnc2c1 [compound 200] | 0.314
c1ccc(-c2nnc(Nc3ccc(Sc4ccnc5cc[nH]c45)cc3)c3ccccc23)cc1 [compound 462] | 0.043
COc1cnc2c(Sc3ccc(Nc4nnc(-c5ccc(F)cc5)c5ccccc45)cc3)ccnc2c1 [compound 356, 4-(4-fluorophenyl)-N-(4-(7-methoxy-1,5-naphthyridin-4-ylthio)phenyl)phthalazin-1-amine] | 0.007
COc1cnc2c(Oc3ccc(Nc4nnc(-c5ccc(Cl)c(Cl)c5)c5ccccc45)cc3)ccnc2c1 [compound 201, 4-(3,4-dichlorophenyl)-N-(4-((7-(methyloxy)-1,5-naphthyridin-4-yl)oxy)phenyl)-1-phthalazinamine] | 0.022
COc1ccc2nccc(Sc3ccc(Nc4nnc(N5CCCCC5)c5ccccc45)cc3)c2n1 [compound 548] | 0.036
Clc1cccc(-c2nnc(Nc3ccc(Sc4ccnc5ccsc45)cc3)c3ccccc23)c1 [compound 518] | 0.016
Oc1cnc2c(Sc3ccc(Nc4nnc(-c5ccccc5)c5ccccc45)cc3)ccnc2c1 [compound 415] | 0.015
COc1ccc2c(Oc3ccc(Nc4nnc(-c5ccc(Cl)cc5)c5ccccc45)cc3)ccnc2c1 [compound 345] | 0.013
c1ccc(-c2nnc(Nc3ccc(Sc4ccnc5[nH]ccc45)cc3)c3ccccc23)cc1 [compound 329] | 0.057
FC1(F)Oc2ccc(-c3nnc(Nc4ccc(Oc5ccnc6ccsc56)cc4)c4ccccc34)cc2O1 [compound 293] | 0.045
COc1ccc2nccc(Oc3ccc(Nc4nnc(-c5ccccc5)c5ccccc45)cc3)c2c1 [compound 238] | 0.053
CCc1cc(N2CC[C@H]3CCCC[C@@H]3C2)nnc1Nc1ccc(Oc2ccnc3cc(OC)cnc23)cc1 [compound 320] | 0.12
COc1cnc2c(Sc3ccc(Nc4nnc(-c5ccc6cn(C)nc6c5)c5ccccc45)cc3)ccnc2c1 [compound 502] | 0.006

Same assay, conditions: Homo sapiens, HeLa, HeLa cells, average, read-out: 24h_4NPloidy EC50_IP (uM Avg)

EC50 [µM] | SMILES
0.055 | CCc1cc(-c2ccccc2OC)nnc1Nc1ccc(Sc2ccnc3cc(OC)cnc23)cc1 [compound 609]
0.053 | COc1ccc2c(C(O)c3ccc(Nc4nnc(-c5ccc(Cl)cc5)c5ccccc45)cc3)ccnc2c1 (stereo not drawn) [compound 614]

Reference: patent US20140336182A1, “Aurora Kinase Modulators and Method of Use” (Amgen Inc., priority 2013, published 2014)
